# In patent publication US20250302394A1, “QUANTITATIVE MAGNETIC RESONANCE IMAGING AND TUMOR FORECASTING” (priority 2021, published 2025):
# Values joined by “and” are separate entries in the source; they are usually repeats but may differ in a detail not shown here. Equal entries are not always repeated. Where two headings read alike, the source gives them in different places.
# Tested on: TNBC
Structure (SMILES),median calibrated efficacy rate α of the drug,"median calibrated efficacy rate α of the drug (good-response patient (100% shrinkage of tumor volume at completion of A/C), Framework 1)","median calibrated efficacy rate α of the drug (poor-response patient (33% shrinkage of tumor volume at completion of A/C), Framework 1)"
O=P1(N(CCCl)CCCl)NCCCO1 (stereo not drawn) [cyclophosphamide],0.60 day⁻¹ and 0.34 day⁻¹,,
COc1cccc2c1C(=O)c1c(O)c3c(c(O)c1C2=O)C[C@@](O)(C(=O)CO)C[C@@H]3O[C@H]1C[C@H](N)[C@H](O)[C@H](C)O1 [doxorubicin],,0.47 day⁻¹,0.24 day⁻¹
